Columns and labels:
SK-OV-3 = assay: In vitro cytotoxicity against SKOV-3 ovarian carcinoma cells; format: functional, cell-based; details: Homo sapiens
Nucleic Acid = assay: DNA binding affinity was evaluated as thermal denaturation using calf thymus DNA; format: nucleic-acid assay; details: Bos taurus
CH1 = assay: In vitro cytotoxicity against CH1 ovarian carcinoma cells; format: functional, cell-based; details: Homo sapiens

Structure (SMILES)	IC50 (SK-OV-3) [µM]	ΔTm (Nucleic Acid) [°C]	IC50 (CH1) [µM]
CNc1cccc2c1C(C)C[C@]1(C)C(NCCCN)=Nc3ccccc3[C@H]21 (some centres undefined)	3.1	0.88	2
CCCNC1=Nc2ccccc2[C@@H]2N(C)c3ccccc3C(C)C[C@]12C (some centres undefined)	1.4	0.17	10.5
CCCNC1=Nc2ccccc2[C@@H]2c3cccc(NC)c3C(C)C[C@]12C (some centres undefined)	12	0.29	9
CC1C[C@]2(C)C(NCCCN)=Nc3ccccc3[C@@H]2N(C)c2ccccc21 (some centres undefined)	3.3	0.46	0.5
CC1C[C@]2(C)C(NCCCO)=Nc3ccccc3[C@@H]2N(C)c2ccccc21 (some centres undefined)	32.5	0.24	14
CNc1cccc2c1C(C)C[C@]1(C)C(NCCCO)=Nc3ccccc3[C@H]21 (some centres undefined)	12.5	0.35	6
CNc1cccc2c1C(C)C[C@]1(C)C(NCCCCN)=Nc3ccccc3[C@H]21 (some centres undefined)	2.25	1.14	3.5
CC1C[C@]2(C)C(NCCCCN)=Nc3ccccc3[C@@H]2N(C)c2ccccc21 (some centres undefined)	1.6	0.58	1.6

Source: ChEMBL document CHEMBL1128620, “Relationship between cytotoxicity and DNA-binding affinity of amidine derivatives of tetrahydroquino[4,3-b][1]benzazepines and tetrahydrobenzo[k]naphthyridines” (Bioorg Med Chem Lett, 1995)
